Assay results: patent US10953115B2, “Production of sterile active pharmaceutical ingredients” (Icrom S.R.L., priority 2012, dated 2021)

Key:
[1] = stated as reason why sterile filtration is not achievable; cited from earlier work
[2] = Appearance and related substances (USP Brinzolamide monograph) after gamma-ray sterilisation; type: physicochemical
Protocol: All the analysis were performed according to USP Brinzolamide monograph, sterility and bioburden test were performed according to Eur. Ph. and USP.
Two related substances (impurities) are described in the USP monograph: Impurity A and Impurity B.
The material was tested according to USP, details about appearance of the powder, related substances and sterility were given in Table 1.
The material was tested according to USP, details about appearance of the powder, related substances and sterility were given in Table 2.
The material was tested according to USP, details about appearance of the powder, related substances and sterility were given in Table 3.
The material was tested according to USP, details about appearance of the powder, related substances and sterility were given in Table 4.
The material was tested according to USP, details about appearance of the powder, related substances and sterility were given in Table 5.

[3] = micronised, LDPE liner in double barrier foil (no vacuum), 25 KGy, RT
[4] = micronised, packed under vacuum, 25 KGy, RT
[5] = micronised, under vacuum and helium, 25 KGy, −78° C.
[6] = micronised, under vacuum and nitrogen, 25 KGy, −78° C.
[7] = not-micronized, LDPE liner in barrier foil, 10 KGy, RT
[8] = not-micronized, LDPE liner in barrier foil, 15 KGy, RT
[9] = not-micronized, LDPE liner in barrier foil, 20 KGy, RT
[10] = not-micronized, LDPE liner in barrier foil, 25 KGy, RT

Compound: CCN[C@H]1CN(CCCOC)S(=O)(=O)c2sc(S(N)(=O)=O)cc21 [Brinzolamide]
- Solubility [1]: poor solubility
- Compliance with USP specifications ([2]; Example 1: not-micronized, 10, 15, 20 and 25 KGy, RT): complies with the USP specifications apart the appearance of the powder in the 20 and 25 KGy trials
- Compliance with USP specification ([2]; Example 2: micronised, no vacuum, 25 KGy, RT): does not complies with USP specification
- Compliance with USP specification ([2]; Example 3: micronised, under vacuum, 25 KGy, RT): complies with USP specification
- Compliance with USP specification ([2]; Example 4: micronised, under vacuum and nitrogen, 25 KGy, −78° C.): complies with USP specification
- Compliance with USP specification ([2]; Example 5: micronised, under vacuum and helium, 25 KGy, −78° C.): complies with USP specification
- Appearance [2, 3]: Almost White powder
- Impurity A [2, 3]: Not detected
- Impurity B [2, 3]: 0.29%
- Impurity C [2, 3]: <0.05%
- Impurity D [2, 3]: 0.62%
- Total Impurities [2, 3]: 1.4%
- Appearance [2, 4]: White powder
- Impurity A [2, 4]: Not detected
- Impurity B [2, 4]: 0.09%
- Impurity C [2, 4]: <0.05%
- Impurity D [2, 4]: 0.30%
- Total Impurities [2, 4]: 0.6%
- Appearance [2, 5]: White powder
- Impurity A [2, 5]: Not detected
- Impurity B [2, 5]: 0.06%
- Impurity C [2, 5]: <0.05%
- Impurity D [2, 5]: 0.11%
- Total Impurities [2, 5]: 0.2%
- Appearance [2, 6]: White powder
- Impurity A [2, 6]: Not detected
- Impurity B [2, 6]: 0.08%
- Impurity C [2, 6]: <0.05%
- Impurity D [2, 6]: 0.16%
- Total Impurities [2, 6]: 0.3%
- Appearance [2, 7]: White powder
- Impurity A [2, 7]: Not detected
- Impurity B [2, 7]: 0.06%
- Impurity C [2, 7]: <0.05%
- Impurity D [2, 7]: 0.11%
- Total Impurities [2, 7]: 0.2%
- Appearance [2, 8]: White powder
- Impurity A [2, 8]: Not detected
- Impurity B [2, 8]: 0.07%
- Impurity C [2, 8]: <0.05%
- Impurity D [2, 8]: 0.14%
- Total Impurities [2, 8]: 0.2%
- Appearance [2, 9]: Greenish powder
- Impurity A [2, 9]: Not detected
- Impurity B [2, 9]: 0.10%
- Impurity C [2, 9]: <0.05%
- Impurity D [2, 9]: 0.19%
- Total Impurities [2, 9]: 0.3%
- Appearance [2, 10]: Greenish powder
- Impurity A [2, 10]: Not detected
- Impurity B [2, 10]: 0.10%
- Impurity C [2, 10]: <0.05%
- Impurity D [2, 10]: 0.21%
- Total Impurities [2, 10]: 0.4%
